The text below walks through data of PMC9841589, “Identification of 2-Aminoacyl-1,3,4-thiadiazoles as Prostaglandin E2 and Leukotriene Biosynthesis Inhibitors” (ACS Medicinal Chemistry Letters, 2022).

The target in one assay is T1, mPGES-1 (Homo sapiens, UniProt O14684).
T1 construct: endogenous in cells; host or cells: A549 cells stimulated with IL-1β; microsomal fraction
T1 sequence (O14684 1-152): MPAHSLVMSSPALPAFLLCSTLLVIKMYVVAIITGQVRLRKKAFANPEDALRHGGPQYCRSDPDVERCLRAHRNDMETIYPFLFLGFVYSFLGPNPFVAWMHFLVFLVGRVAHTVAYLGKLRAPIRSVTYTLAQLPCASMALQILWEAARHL
The assay is described as follows: Cell-free mPGES-1 activity assay (PGE2 biosynthesis). It counts as biochemical. The settings on record: for remaining activity at 10 µM: percentage of control (100%), read-out: mPGES-1 residual activity at 10 μM (%); for IC50: n = 3, read-out: IC50 value ± SEM (mPGES-1, cell-free). An excerpt: (Table 1). […] From the structural point of view, the biological affinities of compounds 3 and 7 (Figure 2A and C) could be positively affected by the 2-bromobenzoyl substituent able to accommodate in a deep binding pocket on the mPGES-1 surface. This moiety interacts by van der Waals contacts with amino acids of the cytoplasmic part and establishes π-stacking with Phe44ChainC and His53ChainC hydrogen bonds with Ser127, and a halogen bond between the bromine atom and the side chain of Aps49ChainC. Furthermore, the 3-phenylphenol and 2-aminobiphenyl moieties of 3 and 7 (Figure 2A and C), respectively, are able to establish a peculiar π-stacking with Tyr130ChainA and a hydrogen bond with Gln134ChainA. […]
mM glutathione, and 250 mM sucrose) and the protein concentration was defined. Potassium phosphate buffer (0.1 M, pH = 7.4) plus glutathione (2.5 mM) was added to dilute microsomes, which were then seeded in a 96-well plate. […]
preincubated for 15 min on ice. MK886 (10 µM) and MD-52 (1 µM) were used as reference drugs.
The reactions started by adding 20 µM of PGH2, and 1 min later, 100 µl of a solution containing FeCl3 (40 mM), citric acid (80 mM), and 11β-PGE 2 (10 µM) were added for stopping the conversion of PGH2. After the extraction of PGE2 and 11β-PGE 2 (internal stardard) by solid-phase extraction, […]

Another assay concerns the target T2, COX-1 (Ovis aries, UniProt P05979).
T2 sequence (P05979 25-600): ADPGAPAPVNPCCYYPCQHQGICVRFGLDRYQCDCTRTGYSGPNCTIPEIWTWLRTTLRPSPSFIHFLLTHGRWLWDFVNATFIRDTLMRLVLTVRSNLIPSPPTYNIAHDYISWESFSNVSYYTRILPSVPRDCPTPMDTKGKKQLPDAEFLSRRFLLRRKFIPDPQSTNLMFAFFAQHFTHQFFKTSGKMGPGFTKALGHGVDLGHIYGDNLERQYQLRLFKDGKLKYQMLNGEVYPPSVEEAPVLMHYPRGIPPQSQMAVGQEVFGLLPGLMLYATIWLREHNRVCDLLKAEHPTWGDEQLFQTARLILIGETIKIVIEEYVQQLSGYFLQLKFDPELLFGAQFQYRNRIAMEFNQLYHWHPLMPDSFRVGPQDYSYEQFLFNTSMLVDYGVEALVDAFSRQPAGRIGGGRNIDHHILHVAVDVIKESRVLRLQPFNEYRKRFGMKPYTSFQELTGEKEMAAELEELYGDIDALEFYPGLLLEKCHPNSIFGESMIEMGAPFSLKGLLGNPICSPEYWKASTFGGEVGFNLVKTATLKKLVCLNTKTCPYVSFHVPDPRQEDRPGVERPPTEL
The experiment in a line: Cell-free COXs activity assay, COX-1. It counts as biochemical, ovine. To be noted: percentage of uninhibited control (100%), n = 3, n.i.: no inhibitory activity observed, read-out: COX-1 residual activity (%). The method, then: Cell-free COXs activity assay
Isolated COX-1 (ovine) and COX-2 (human) were used for the evaluation of the activity of test compounds 3, 6, 7, and 9 on cyclooxygenases. COXs were diluted using Tris buffer (100 mM, pH = […]
8) plus 5 mM glutathione, 100 µM EDTA and 5 µM hemoglobin) to a final concentration of 50 U/mL for COX-1 and 20 U/mL for COX-2, and pre-incubated with test compounds 3, 6, 7, and 9 (10 µM) or vehicle (0.1% DMSO) over 5 min at rt. After 1 min at 37 °C, reactions were started after addition of arachidonic acid to a final concentration of 5 µM for COX-1 and 2 µM for COX-2. After 5 min at 37 °C, 1 mL of ice-cold methanol was added for stopping the reactions on ice. Then, PGB 1 as internal standard and 530 µl PBS plus HCl were added, and solid-phase extraction was performed as reported before.4-6, 17-19 COXs product formation (12-HHT) was determined using RP-HPLC. 4-6, 17-19 Indomethacin (10 µM) and celecoxib (5 µM) were used as reference drugs.
Expression, purification and activity assay of human recombinant sEH
Human recombinant sEH was expressed in Sf9 cells and was infected using a baculovirus, provided by Dr. B. Hammock, University of California, Davis, CA. After 72 hours, cells were pelleted and sonicated (3 × 10 sec) at 4 °C in lysis buffer (50 mM NaHPO 4, pH = 8, 300 mM NaCl, 10% glycerol, 1 mM EDTA, 1 mM phenylmethanesulfonyl fluoride, 10 µg/mL of leupeptin, and 60 µg/mL of soybean trypsin inhibitor). Lysates were centrifuged over 60 min at 4 °C (100,000 × g), and supernatants were collected and submitted to a benzylthio-sepharose-affinity chromatography for sEH purification by elution with 4-fluorochalcone oxide in PBS plus 1 mM DTT and 1 mM EDTA.720 […]
DMSO) for 15 min at rt. 50 µM 3-phenyl-cyano(6-methoxy-2-naphthalenyl)methyl ester-2-oxiraneacetic acid (PHOME), a non-fluorescent compound, was added for starting the reaction.
PHOME is enzymatically converted into a fluorescent compound, 6-methoxy-naphtaldehyde, detectable by using a spectrofluorometer setting λ em = 465 nm, λ ex = 330 nm. After 60 min, ZnSO 4

By IC50 is commonly meant the point on the concentration scale where inhibition reaches its midpoint. Turning to `O=C(Nc1nnc(-c2ccc(-c3cccc(O)c3)cc2)s1)c1ccccc1Br` [compound 3], at mPGES-1, the remaining activity at 10 µM worked out at 8.4% and the IC50 stood at 200 nM. Besides, the remaining activity at 10 µM on COX-1 stood at 104%.
For `Cc1cc(C(=O)Nc2nnc(-c3ccc(-c4ccccc4N)cc3)s2)cc(Cl)n1` [compound 6], in that order: 31.7%, 3100 ± 600 nM and 82.3%.
For `Nc1ccccc1-c1ccc(-c2nnc(NC(=O)c3ccccc3Br)s2)cc1` [compound 7], in that order: 16.7%, 150 nM and 98.1%.
For `Nc1ccccc1-c1ccc(-c2nnc(NC(=O)c3c(Cl)ccnc3Cl)s2)cc1` [compound 9], in that order: 20.9%, 1700 ± 300 nM and 107%.
